Laboratory results taken from the supplement of paper PMC6045584.
± gives the standard deviation of the averaged measurements.

Columns and labels:
[1] = compound: CCCCCCCCCCCCCCCC(=O)Nc1ccn([C@@H]2O[C@H](CO)[C@@H](O)[C@@H]2C#N)c(=O)n1 [SAPACITABINE]; assay: surviving fraction relative to DMSO-only wells; higher = less growth inhibition; conditions: exposure time: 5 days
Summary of the method: (§1)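 For each tumour cell line, log-phase cells were put into 384-well plates at 250–500 cells per well, then after 24 hours exposed continuously for five days to inhibitors at 0.5, 1, 5, 10, 50, 100, 500 and 1000 nM. Viability was assessed by CellTiter-Glo luminescence, with surviving fraction expressed relative to the median of DMSO-only wells. Lines were screened three times and retained only if replicate Pearson r exceeded 0.7 and median Z' exceeded 0.3.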

[2] = compound: Nc1nc2[nH]cnc2c(=S)[nH]1 [TIOGUANINE]; assay: as above; conditions: exposure time: 5 days
Summary of the method: as §1

Test System	surviving fraction ([1]; 0.5 nM)	surviving fraction ([1]; 1 nM)	surviving fraction ([1]; 5 nM)	surviving fraction ([1]; 10 nM)	surviving fraction ([1]; 50 nM)	surviving fraction ([1]; 100 nM)	surviving fraction ([1]; 500 nM)	surviving fraction ([1]; 1000 nM)	surviving fraction ([2]; 0.5 nM)	surviving fraction ([2]; 1 nM)	surviving fraction ([2]; 5 nM)	surviving fraction ([2]; 10 nM)	surviving fraction ([2]; 50 nM)	surviving fraction ([2]; 100 nM)	surviving fraction ([2]; 500 nM)	surviving fraction ([2]; 1000 nM)
SIHA CERVIX	0.907 ± 0.068	0.863 ± 0.03	0.895 ± 0.044	0.91 ± 0.021	1.02 ± 0.026	0.972 ± 0.11	0.739 ± 0.046	0.641 ± 0.035	0.848 ± 0.07	0.858 ± 0.097	0.994 ± 0.044	0.967 ± 0.084	0.97 ± 0.043	0.987 ± 0.078	0.817 ± 0.029	0.856 ± 0.029
SKBR3 BREAST	0.873 ± 0.076	0.696 ± 0.054	0.756 ± 0.012	0.828 ± 0.046	0.791 ± 0.15	0.572 ± 0.096	0.386 ± 0.084	0.391 ± 0.051	1.03 ± 0.087	0.956 ± 0.13	0.946 ± 0.13	1.04 ± 0.17	1.11 ± 0.11	0.939 ± 0.03	1.08 ± 0.17	1.05 ± 0.045
SNU475 LIVER	0.888 ± 0.063	0.726 ± 0.057	0.83 ± 0.03	0.365 ± 0.03	0.962 ± 0.057	0.745 ± 0.025	0.573 ± 0.016	0.291 ± 0.015	0.949 ± 0.025	0.963 ± 0.02	0.961 ± 0.036	0.957 ± 0.028	0.966 ± 0.099	0.992 ± 0.025	0.899 ± 0.054	0.916 ± 0.012
SUM44 BREAST	0.781 ± 0.19	0.773 ± 0.18	0.823 ± 0.14	0.827 ± 0.1	0.902 ± 0.12	0.686 ± 0.13	0.68 ± 0.093	0.611 ± 0.07	0.946 ± 0.03	0.992 ± 0.046	1.04 ± 0.035	1.04 ± 0.028	1.03 ± 0.011	1.09 ± 0.086	0.97 ± 0.091	1.055 ± 0.0085
SUM149 BREAST	0.829 ± 0.11	0.666 ± 0.055	0.69 ± 0.11	0.188 ± 0.006	0.339 ± 0.031	0.22 ± 0.018	0.236 ± 0.016	0.186 ± 0.021	1.06 ± 0.068	0.998 ± 0.076	1.11 ± 0.068	1.05 ± 0.058	0.984 ± 0.029	1.06 ± 0.082	1.01 ± 0.067	1.05 ± 0.058
SUM149.B1*.S BREAST	0.918 ± 0.067	0.792 ± 0.011	0.888 ± 0.01	0.455 ± 0.022	0.839 ± 0.023	0.567 ± 0.066	0.281 ± 0.022	0.428 ± 0.022	1.02 ± 0.072	1.019 ± 0.0064	1.03 ± 0.016	1.03 ± 0.056	1.02 ± 0.033	1 ± 0.015	0.993 ± 0.022	0.922 ± 0.033
SUM159 BREAST	0.954 ± 0.016	0.942 ± 0.01	0.947 ± 0.028	0.9227 ± 0.0074	0.935 ± 0.018	0.851 ± 0.018	0.42 ± 0.0061	0.34 ± 0.021	1.07 ± 0.14	1.02 ± 0.025	1.02 ± 0.041	1.03 ± 0.069	1.04 ± 0.075	0.97 ± 0.077	1.05 ± 0.084	1.008 ± 0.006
SYO1 SYNOVIAL	0.83 ± 0.07	0.689 ± 0.019	0.737 ± 0.016	0.343 ± 0.029	0.48 ± 0.022	0.269 ± 0.0028	0.0989 ± 0.0067	0.0679 ± 0.0022	0.941 ± 0.043	0.925 ± 0.042	0.917 ± 0.075	0.896 ± 0.021	0.785 ± 0.029	0.645 ± 0.043	0.411 ± 0.022	0.354 ± 0.028
T47D BREAST	0.9004 ± 0.0044	0.871 ± 0.029	0.911 ± 0.078	0.825 ± 0.035	0.961 ± 0.06	0.918 ± 0.036	0.649 ± 0.0094	0.519 ± 0.039	1.03 ± 0.025	0.984 ± 0.038	0.964 ± 0.016	0.998 ± 0.029	1.08 ± 0.045	1.06 ± 0.072	1.03 ± 0.061	0.978 ± 0.011
U2OS BONE	0.921 ± 0.066	0.938 ± 0.06	0.946 ± 0.035	0.936 ± 0.067	0.939 ± 0.016	0.83 ± 0.036	0.729 ± 0.019	0.66 ± 0.032	1.03 ± 0.058	1.06 ± 0.043	1.077 ± 0.007	1.04 ± 0.018	1.08 ± 0.05	1.06 ± 0.048	0.939 ± 0.014	0.732 ± 0.042
VCAP PROSTATE	0.892 ± 0.048	0.935 ± 0.07	0.959 ± 0.085	0.91 ± 0.055	1.06 ± 0.038	1.03 ± 0.1	0.95 ± 0.015	0.791 ± 0.1	1.04 ± 0.18	0.99 ± 0.11	1.11 ± 0.13	1.11 ± 0.12	1.14 ± 0.094	1.08 ± 0.11	0.973 ± 0.082	1.02 ± 0.15
VP229 BREAST	0.763 ± 0.17	0.668 ± 0.054	0.686 ± 0.11	0.643 ± 0.084	1 ± 0.14	0.835 ± 0.12	0.69 ± 0.099	0.669 ± 0.083	1.07 ± 0.089	1.06 ± 0.053	1.03 ± 0.031	1.04 ± 0.057	1.11 ± 0.14	1.1 ± 0.012	1.14 ± 0.17	1.08 ± 0.15
YAMATO SYNOVIAL	0.776 ± 0.044	0.446 ± 0.029	0.684 ± 0.053	0.11 ± 0.0083	1.04 ± 0.062	0.511 ± 0.021	0.402 ± 0.01	0.0903 ± 0.0049	1.31 ± 0.071	1.21 ± 0.046	1.32 ± 0.052	1.35 ± 0.11	1.36 ± 0.17	1.37 ± 0.06	1.24 ± 0.092	1.06 ± 0.066
ZR751 BREAST	1.02 ± 0.049	1 ± 0.21	1.01 ± 0.14	0.888 ± 0.13	1.01 ± 0.073	0.788 ± 0.011	0.627 ± 0.06	0.472 ± 0.039	1.01 ± 0.07	0.969 ± 0.16	0.82 ± 0.16	0.897 ± 0.064	1.12 ± 0.13	1.02 ± 0.16	1.04 ± 0.013	1.07 ± 0.15
